This note sets out measurements from PubChem BioAssay AID652269 (Broad Institute, 2013).

Where “and” joins values, the source holds several entries; their conditions need not be identical. Identical values can stand only once. Calls of active or inactive are those of the source.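 Rule for the calls: active = median TrxR activity remaining at the top dose below 80%; inactive = the rest.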

The first test addresses Thioredoxin reductase 1, cytoplasmic (Rattus norvegicus) (UniProt O89049). The experiment in a line: Trx/TrxR/NADPH system inhibitors, dose response, counter-screen for PDI inhibitor project, biochemical, rat TrxR1, insulin turbidity, dry powder (AID 652269). Particulars: Trx/TrxR/NADPH insulin reduction, turbidity OD650. (In general: The purpose of a counterscreen is to sort out artefacts and off-target activity.)
`O=C(Nc1ccccc1)C1(CCOc2ccccc2)CCN(Cc2ccc(O)c(Cl)c2)CC1`: the outcome was inactive.

Staying with this test, now noted: Trx/TrxR/NADPH insulin reduction, turbidity OD650; at 33.3 µM.
In the case of `CCOC(=O)C1(CCOc2ccccc2)CCN(Cc2ccc(OC)c(Cl)c2)CC1`, the TrxR activity remaining % (hits give low values) was 100% (inactive). As for `O=C(NC1CCCC1)C1(CCOc2ccccc2)CCN(Cc2ccc(O)c(Cl)c2)CC1`, the TrxR activity remaining % (hits give low values) is 100% (inactive). Consider `C/C1=C\C[C@H](OC(=O)c2ccc(O)cc2)/C(C)=C/[C@@H](O)C(C)(C)CCC1`, for which the TrxR activity remaining % (hits give low values) is 97% (inactive).

For `CC(C)OC(=O)C1(CCOc2ccccc2)CCN(Cc2ccc(O)c(Cl)c2)CC1`, the TrxR activity remaining % (hits give low values) is 100% (inactive). Consider `CCOC(=O)C1(CCOc2ccccc2)CCN(Cc2ccc(O)cc2)CC1`, for which the TrxR activity remaining % (hits give low values) is 100% (inactive).

For the compound `CCOC(=O)C1(CCOc2ccccc2)CCN(C(=O)c2ccc(O)c(Cl)c2)CC1`, the TrxR activity remaining % (hits give low values) is 100% (inactive). On to `CCOC(=O)C1(CCOc2ccccc2)CCN(Cc2ccc(O)c(Cl)c2)CC1`, for which the TrxR activity remaining % (hits give low values) was 100% (inactive) and 94% (inactive). `CC(C)(C)OC(=O)C1(CCOc2ccccc2)CCN(Cc2ccc(O)c(Cl)c2)CC1`: the TrxR activity remaining % (hits give low values) was 100% (inactive).

As for `CCOC(=O)c1c(CN2CCN(CCO)CC2)n(-c2ccccc2)c2cc(Br)c(O)cc12`, the TrxR activity remaining % (hits give low values) was 100% (inactive).
